Reference: patent US20030171545A1, “Novel Protein” (priority 1999, published 2003)
Entries after “also recorded” stand apart in the source; their conditions may differ.

Assays:
[1] = system: Mock transfected CHO cells; assay: FLIPR intracellular calcium response to LTB4, mock transfected CHO cells; assay type: cell-based; conditions: LTB4 10^-10 to 10^-7 M, normalised to luciferase
Experimental: (§1) […] total DNA was transfected into CHO cells using the following transfection mix: 5 μg BLTR, pcDNA3 as needed to keep constant the amount of total DNA used, 1 μg pCMV-luciferase and BLTR-2 at various concentration. Responses to LTB4 (between 10^−10 and 10^−7 M) were measured using a FLIPR assay (Fluorescence Imaging Plate Reader—Molecular Devices) and values were normalised relative to the luciferase reading.

BLTR = target: T1, BLTR (Homo sapiens, UniProt Q15722); assay: FLIPR intracellular calcium response to LTB4, CHO cells transfected with BLTR; assay type: cell-based; conditions: LTB4 10^-10 to 10^-7 M
T1 construct: expressed in transfected cells; host or cells: CHO
T1 sequence (Q15722 whole entry): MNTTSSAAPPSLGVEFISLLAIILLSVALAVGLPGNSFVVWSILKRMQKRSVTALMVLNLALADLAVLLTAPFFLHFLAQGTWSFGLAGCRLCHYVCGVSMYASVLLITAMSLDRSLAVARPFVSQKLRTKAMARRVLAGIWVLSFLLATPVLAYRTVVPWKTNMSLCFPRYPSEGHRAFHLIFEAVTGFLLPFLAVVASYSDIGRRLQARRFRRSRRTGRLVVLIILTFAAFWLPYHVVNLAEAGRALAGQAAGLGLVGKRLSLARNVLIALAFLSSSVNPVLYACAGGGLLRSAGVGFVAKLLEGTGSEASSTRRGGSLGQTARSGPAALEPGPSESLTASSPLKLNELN
Experimental: as §1

LTRGW1 [2] = assay: FLIPR intracellular calcium response to LTB4, CHO cells transfected with LTRGW1 alone; assay type: cell-based, human
Experimental: […] Responses to LTB4 (between 10^−10 and 10^−7 M) were measured using a FLIPR assay (Fluorescence Imaging Plate Reader—Molecular Devices) and values were normalised relative to the luciferase reading.

BLTR/LTRGW1 = assay: FLIPR intracellular calcium response to LTB4, CHO cells co-transfected with BLTR and LTRGW1; assay type: cell-based, human
Experimental: as §1

[3] = target: T2, BLTR and LTRGW1 co-expressed (Homo sapiens, UniProt Q15722+Q9NPC1); assay: [3H]LTB4 binding to membranes of transfected CHO cells, scintillation proximity assay; conditions: [3H]LTB4, membranes of transfected CHO cells; compared with BLTR or LTRGW1 alone; FIG. 2
T2 construct: expressed in transfected cells; host or cells: CHO
T2 sequence (Q15722 whole entry, one chain of several): as the sequence (Q15722 whole entry) above
Experimental: CHO cells were transfected with DNA as described in Example 1. [^3H] LTB4 binding to membrane preparations from transfected cells was measured using wheat germ agglutinin beads in a scintillation proximity assay. The assay was carried out in 50: g Hepes 20: g MgCl2 in a total assay volume of 100: g. [^3H] LTB4 was used to measure total binding. [^3H] LTB4 was then displaced with unlabelled LTB4 to measure non-specific binding (NSB). The binding of LTB4 to cells expressing BLTR cells co-expressing BLTR and LTRGW1 and cells expressing LTRGW1 is illustrated in FIG. 2.

LTRGW1 [4] = target: T3, LTRGW1 (Homo sapiens, UniProt Q9NPC1); conditions: leukotriene binding to LTRGW1; Kamohara et al; cited from earlier work
T3 sequence (Q9NPC1 1-358): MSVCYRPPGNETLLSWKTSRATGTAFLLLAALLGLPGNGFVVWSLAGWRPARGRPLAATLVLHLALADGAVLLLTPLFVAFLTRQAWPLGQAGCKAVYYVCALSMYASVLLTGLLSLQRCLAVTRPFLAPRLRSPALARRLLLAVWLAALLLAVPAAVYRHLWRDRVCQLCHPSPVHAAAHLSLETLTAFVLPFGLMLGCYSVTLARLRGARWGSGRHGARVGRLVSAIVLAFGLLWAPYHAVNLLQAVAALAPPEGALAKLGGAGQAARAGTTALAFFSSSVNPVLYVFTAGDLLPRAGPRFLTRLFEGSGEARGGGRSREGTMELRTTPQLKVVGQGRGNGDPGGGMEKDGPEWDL

LTRGW1 [5] = target: T3, LTRGW1; conditions: Kamohara et al; cited from earlier work
LTRGW1 [6] = target: T3, LTRGW1; conditions: Yokomizo et al; cited from earlier work

CCCCC/C=C\C[C@@H](O)/C=C/C=C/C=C\[C@@H](O)CCCC(=O)O [LTB4]
Response to LTB4 [1]: Inactive
Response to LTB4 (BLTR): Active
Response to LTB4 (LTRGW1 [2]; CHO cells transfected with LTRGW1(274)): Inactive
Response to LTB4 (LTRGW1 [2]; CHO cells transfected with LTRGW1(275)): Inactive
Response to LTB4 (LTRGW1 [2]; CHO cells transfected with LTRGW1(276)): Inactive
Mobilisation of intracellular calcium in response to LTB4 (LTRGW1 [2]; LTRGW1 expressed alone in CHO cells): does not induce a detectable mobilisation of intracellular calcium
Response to LTB4 (BLTR/LTRGW1; CHO cells transfected with BLTR/LTRGW1(276), FLIPR): Active
Response of BLTR to LTB4 when LTRGW1 is co-expressed (BLTR/LTRGW1; compared with BLTR alone, increase proportional to amount of LTRGW1 in transfection mix, FIG. 1): increased
LTB4 binding to cells co-expressing BLTR and LTRGW1 [3]: enhancement
Forskolin-stimulated intracellular cAMP accumulation (LTRGW1 [4]): inhibition
Chemotaxis (LTRGW1 [5]): induces chemotaxis
Cellular calcium (LTRGW1 [6]): increases cellular calcium; also recorded: increases intracellular calcium

CCCCCCCC[C@H](O)/C=C/C=C\C=C\[C@H](O)CCCC(=O)O [LTB3]
Forskolin-stimulated intracellular cAMP accumulation (LTRGW1 [4]): inhibition

CC/C=C\C/C=C\C[C@@H](O)/C=C/C=C/C=C\[C@@H](O)CCCC(=O)O [LTB5]
Forskolin-stimulated intracellular cAMP accumulation (LTRGW1 [4]): inhibition

CCCCC/C=C\C[C@H](O)/C=C/C=C/C=C\[C@@H](O)CCCC(=O)O [12-epi-LTB4]
Forskolin-stimulated intracellular cAMP accumulation (LTRGW1 [4]): inhibition
